Measured values as given in EP0346694A1, “Substituted 3-Aminosydnone imines, process for their preparation and their use” (CASSELLA Aktiengesellschaft, priority 1988, dated 1989).
Counter-ions that a name gives are not always drawn.

System: Spiralstreifen der Arteria pulmonalis des Meerschweinchens
Assay: Relaxation of potassium-depolarised, CaCl₂-contracted spiral strips of guinea pig pulmonary artery (modified method of Godfraind and Kaba / Schüman et al)
Assay type: cell-based, Meerschweinchen
Conditions: Cavia porcellus; concentration inhibiting the contraction by 50 %; strips depolarised with 40 mmol/l Kalium in calcium-free Tyrode solution, contraction by 0,5 mmol/l CaCl₂; cumulative addition; mean of 4 to 6 strips; read-out: IC₅₀ (converted)
Excerpt: Die pharmakologische Wirkung der verbindungen der Formel I wurde nach einer modifizierten Methode von Godfraind and Kaba (Arch.Int. Pharmacodyn. Ther. 196, (Suppl) 35 bis 49, 1972) und von Schüman et al (Naunyn-Schmiedeberg's Arch. Pharmacol. 289, 409 bis 418, 1975) ermittelt. Dabei werden Spiralstreifen der Arteria pulmonalis des Meerschweinchens nach Äquilibrierung in calciumfreier Tyrodelösung mit 40 mmol/l Kalium depolarisiert. Ein Zusatz von 0,5 mmol/l CaCl₂ löst dann eine Kontraktion aus. Die relaxierende Wirkung der Prüfsubstanz wird durch kumulative Zugabe in 1/2 log 10 abgestuften Konzentrationen ermittelt. Aus der Konzentrationswirkungskurve (Abszisse: -log mol/l Prüfsubstanz, Ordinate: % Hemmung der maximalen Kontraktion, Mittelwert von 4 bis 6 Gefäß-streifen) wird die Konzentration der Prüfsubstanz ermittelt, welche die Kontraktion um 50 % hemmt (= IC₅₀, mol/l). In der folgenden Tabelle sind die so erhaltenen IC₅₀-Werte angegeben. Wie der Vergleich mit dem IC₅₀-Wert 3·10⁻⁴ für die bekannte Verbindung Molsidomin (N-Ethoxycarbonyl-3-morpholino-sydnonimin), vgl. DE-B-16 95 897, ergibt, liegen die Werte für die Verbindungen der Formel I erheblich günstiger.

Row | Compound | IC50
1 | CC1(C)CCCCN1[n+]1cc([NH-])on1 [b, 3-(2.2-Dimethylpiperidin-1-yl)-sydnonimin-hydrochlorid] | 1000 nM
2 | CCOC(=O)[N-]c1c[n+](N2CCOCC2)no1 [d, N-Ethoxycarbonyl-3-morpholino-sydnonimin, reference compound] | 300000 nM
3 | CC(C)N1CCN([n+]2cc([NH-])on2)C(C)(C)C1 [c, 3-(4-Isopropyl-2.2-dimethyl-piperazin-1-yl)-sydnonimin-dihydrochlorid] | 1000 nM
4 | CC1(C)COCCN1[n+]1cc([NH-])on1 [a, 3-(3.3-Dimethylmorpholin-4-yl)-sydnonimin-hydrochlorid] | 1000 nM
